“And” between values parts separate entries of the source, which are not always exact repeats. Equal values may be shown once. Inconclusive results are not listed.
Tested on: BDF1 mice, colon carcinoma 38 sc, T/C %
Assay: NCI In Vivo Anticancer Drug Screen. Data for tumor model Colon Carcinoma 38 (subcutaneous) in B6D2F1 (BDF1) mice
Details: endpoint: median tumor weight (est.), higher = larger tumour
Outline: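 Ratio of survival or tumor size, compound-treated animals relative to vehicle controls, in tumor-bearing mice.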

[1] = dose: 12.5 mg/kg/injection, schedule: Q07DX002 (ip), vehicle: Klucel (hydroxypropylcellulose) (HPC)
[2] = dose: 12.5 mg/kg/injection, schedule: Q07DX002 (ip), vehicle: saline with Tween-80
[3] = dose: 25.0 mg/kg/injection, schedule: Q07DX002 (ip), vehicle: Klucel (hydroxypropylcellulose) (HPC)
[4] = dose: 25.0 mg/kg/injection, schedule: Q07DX002 (ip), vehicle: saline with Tween-80
[5] = dose: 50.0 mg/kg/injection, schedule: Q07DX002 (ip), vehicle: saline with Tween-80
[6] = dose: 100.0 mg/kg/injection, schedule: Q07DX002 (ip), vehicle: saline with Tween-80
[7] = dose: 200.0 mg/kg/injection, schedule: Q07DX002 (ip), vehicle: Klucel (hydroxypropylcellulose) (HPC)
[8] = dose: 200.0 mg/kg/injection, schedule: Q07DX002 (ip), vehicle: saline with Tween-80
[9] = dose: 400.0 mg/kg/injection, schedule: Q07DX002 (ip), vehicle: saline with Tween-80
[10] = dose: 6.25 mg/kg/injection, schedule: Q07DX002 (ip), vehicle: suspension in saline
[11] = dose: 50.0 mg/kg/injection, schedule: Q07DX002 (ip), vehicle: suspension in saline
[12] = dose: 50.0 mg/kg/injection, schedule: Q07DX002 (ip), vehicle: Klucel (hydroxypropylcellulose) (HPC)
[13] = dose: 6.25 mg/kg/injection, schedule: Q07DX002 (ip), vehicle: saline
[14] = dose: 12.5 mg/kg/injection, schedule: Q07DX002 (ip), vehicle: saline
[15] = dose: 100.0 mg/kg/injection, schedule: Q07DX002 (ip), vehicle: Klucel (hydroxypropylcellulose) (HPC)
[16] = dose: 400.0 mg/kg/injection, schedule: Q07DX002 (ip), vehicle: Klucel (hydroxypropylcellulose) (HPC)
[17] = dose: 0.03 mg/kg/injection, schedule: Q07DX002 (ip), vehicle: saline
[18] = dose: 0.06 mg/kg/injection, schedule: Q07DX002 (ip), vehicle: saline
[19] = dose: 50.0 mg/kg/injection, schedule: Q07DX002 (ip), vehicle: saline
[20] = dose: 100.0 mg/kg/injection, schedule: Q07DX002 (ip), vehicle: saline

SMILES: COC1C(O)C(C)OC(OC2C(Oc3cccc4c(O)c5c(=O)oc6ccc(C)c7c(=O)oc(c34)c5c67)OC(C)C(O)C2O)C1O (stereo unspecified)
- T/C [1]: 118 % of control and 108 % of control
- T/C [2]: 111 % of control
- T/C (dose: 12.5 mg/kg/injection, schedule: Q07DX003 (ip), vehicle: Klucel (hydroxypropylcellulose) (HPC)): 72 % of control and 92 % of control
- T/C [3]: 57 % of control
- T/C [4]: 83 % of control
- T/C (dose: 25.0 mg/kg/injection, schedule: Q07DX003 (ip), vehicle: Klucel (hydroxypropylcellulose) (HPC)): 103 % of control
- T/C [5]: 84 % of control
- T/C [6]: 75 % of control
- T/C (dose: 100.0 mg/kg/injection, schedule: Q07DX003 (ip), vehicle: Klucel (hydroxypropylcellulose) (HPC)): 88 % of control and 104 % of control
- T/C [7]: 157 % of control
- T/C [8]: 107 % of control

SMILES: CN=S(=O)(OCCCCCOS(=O)(=NC)c1ccc(C)cc1)c1ccc(C)cc1 (stereo unspecified)
- T/C [5]: 71 % of control and 94 % of control
- T/C [6]: 65 % of control and 89 % of control
- T/C [8]: 96 % of control
- T/C [9]: 61 % of control

SMILES: [I][Hg][CH2]C1COC([CH2][Hg][I])CO1 (stereo unspecified)
- T/C [10]: 67 % of control
- T/C [11]: 120 % of control

SMILES: N#Cc1nc(C#N)c(Sc2ccccc2)c(Sc2ccccc2)c1Sc1ccccc1
- T/C (dose: 6.25 mg/kg/injection, schedule: Q07DX002 (ip), vehicle: saline with Tween-80): 93 % of control
- T/C [2]: 30 % of control
- T/C [4]: 67 % of control
- T/C [5]: 78 % of control
- T/C [6]: 92 % of control
- T/C [8]: 54 % of control

SMILES: COc1cccc2c1C(=O)c1c(O)c3c(c(O)c1C2=O)C[C@@](O)(C(O)CO)C[C@@H]3OC1CC(N(Cc2ccccc2)Cc2ccccc2)C(O)C(C)O1 (stereo partly specified)
- T/C (dose: 12.5 mg/kg/injection, schedule: Q07DX002 (ip), vehicle: water): 75 % of control
- T/C (dose: 25.0 mg/kg/injection, schedule: Q07DX002 (ip), vehicle: water): 72 % of control
- T/C (dose: 50.0 mg/kg/injection, schedule: Q07DX002 (ip), vehicle: water): 36 % of control

SMILES: C#CCNC1=C(C)C(=O)C2=C(C1=O)[C@H](COC(N)=O)[C@]1(OC)[C@@H]3N[C@@H]3CN21
- T/C (dose: 1.5 mg/kg/injection, schedule: Q07DX002 (ip), vehicle: distilled water + Tween-80): 49 % of control
- T/C (dose: 3.0 mg/kg/injection, schedule: Q07DX002 (ip), vehicle: distilled water + Tween-80): 78 % of control
- T/C (dose: 6.0 mg/kg/injection, schedule: Q07DX002 (ip), vehicle: distilled water + Tween-80): 20 % of control

SMILES: C=C(C)C(=O)O[C@H]1CC2=C[C@@H](C[C@@]3(C)O[C@@H]3[C@H]3OC(=O)C(=C)[C@@H]31)OC2=O
- T/C (dose: 3.12 mg/kg/injection, schedule: Q07DX002 (ip), vehicle: Klucel (hydroxypropylcellulose) (HPC)): 93 % of control
- T/C (dose: 6.25 mg/kg/injection, schedule: Q07DX002 (ip), vehicle: Klucel (hydroxypropylcellulose) (HPC)): 112 % of control and 105 % of control
- T/C [1]: 93 % of control
- T/C [3]: 90 % of control and 102 % of control
- T/C [12]: 113 % of control and 100 % of control

SMILES: O=c1[nH]c(=O)n(C2OC(CO)C(O)C2O)cc1F (stereo unspecified)
- T/C (dose: 3.12 mg/kg/injection, schedule: Q07DX002 (ip), vehicle: saline): 121 % of control
- T/C [13]: 106 % of control
- T/C [14]: 64 % of control

SMILES: COc1ccc(-c2cc(=O)c3cccc(CC(=O)O)c3o2)cc1OC
- T/C [3]: 106 % of control
- T/C [15]: 117 % of control
- T/C [7]: 82 % of control

SMILES: Oc1c(Cl)cc(C(c2cc(Cl)c(O)c(Cl)c2)C(c2cc(Cl)c(O)c(Cl)c2)c2cc(Cl)c(O)c(Cl)c2)cc1Cl
- T/C [1]: 115 % of control and 99 % of control
- T/C [3]: 123 % of control
- T/C [12]: 96 % of control
- T/C [15]: 95 % of control and 104 % of control
- T/C [7]: 63 % of control and 86 % of control
- T/C [16]: 57 % of control and 82 % of control

SMILES: CNC(=O)/C=C/C1=CN2C(=O)c3ccc(C)c(O)c3NC(OC)C2C1 (stereo unspecified)
- T/C [17]: 119 % of control
- T/C [18]: 109 % of control
- T/C (dose: 0.25 mg/kg/injection, schedule: Q07DX002 (ip), vehicle: saline): 103 % of control
- T/C (dose: 0.5 mg/kg/injection, schedule: Q07DX002 (ip), vehicle: saline): 122 % of control

SMILES: CNC(=O)OCc1c(COC(=O)NC)c(-c2ccccc2)n(C)c1-c1ccccc1
- T/C (dose: 100.0 mg/kg/injection, schedule: Q07DX002 (ip), vehicle: distilled water + Tween-80): 62 % of control

SMILES: Cc1ccc(N)c(N)c1
- T/C [4]: 80 % of control
- T/C [5]: 89 % of control
- T/C [6]: 101 % of control
- T/C [8]: 114 % of control
- T/C [9]: 96 % of control

SMILES: CONc1ccn(C2OC(CO)C(O)C2O)c(=O)n1 (stereo unspecified)
- T/C [19]: 92 % of control and 101 % of control
- T/C [20]: 113 % of control
- T/C (dose: 200.0 mg/kg/injection, schedule: Q07DX002 (ip), vehicle: saline): 124 % of control
- T/C (dose: 400.0 mg/kg/injection, schedule: Q07DX002 (ip), vehicle: saline): 91 % of control

SMILES: CN(C)CCCNc1c2ccccc2nc2cccc([N+](=O)[O-])c12
- T/C [17]: 112 % of control and 104 % of control
- T/C [18]: 116 % of control
- T/C (dose: 0.06 mg/kg/injection, schedule: Q07DX003 (ip), vehicle: saline): 93 % of control
- T/C (dose: 0.12 mg/kg/injection, schedule: Q07DX003 (ip), vehicle: saline): 98 % of control
- T/C (dose: 0.25 mg/kg/injection, schedule: Q07DX003 (ip), vehicle: saline): 101 % of control

SMILES: COCC1OC2OC3C(COC)OC(OC4C(COC)OC(OC5C(COC)OC(OC6C(COC)OC(OC7C(COC)OC(OC8C(COC)OC(OC1C(O)C2O)C(O)C8O)C(O)C7O)C(O)C6O)C(O)C5O)C(O)C4O)C(O)C3O (stereo unspecified) (tested in a mixture with another compound)
- T/C [3]: 72 % of control
- T/C [12]: 68 % of control
- T/C [15]: 53 % of control
- T/C [7]: 69 % of control
- T/C [16]: 95 % of control

SMILES: CC[N](CC)[Ge]([CH2]C)[CH2]C.CC[N](CC)[Ge]([CH2]C)[CH2]C
- T/C [13]: 87 % of control
- T/C [10]: 77 % of control
- T/C [14]: 77 % of control
- T/C (dose: 12.5 mg/kg/injection, schedule: Q07DX002 (ip), vehicle: suspension in saline): 69 % of control
- T/C (dose: 25.0 mg/kg/injection, schedule: Q07DX002 (ip), vehicle: saline): 79 % of control
- T/C (dose: 25.0 mg/kg/injection, schedule: Q07DX002 (ip), vehicle: suspension in saline): 95 % of control
- T/C [19]: 77 % of control
- T/C [11]: 84 % of control
- T/C [20]: 61 % of control

SMILES: CC[C@H](CC[C@@H](C)C1CC[C@H]2[C@@H]3CC=C4C[C@@H](OP(=O)(N5CC5)N5CC5)CC[C@]4(C)[C@H]3CC[C@]12C)C(C)C (stereo partly specified)
- T/C [5]: 95 % of control
- T/C [8]: 79 % of control
- T/C [9]: 92 % of control

SMILES: CC(=O)OC(C)C1C2=C(C(=O)CC1(C)O)C(=O)c1c(ccc(-c3ccc4c(c3O)C(=O)C3=C(C4=O)C(C(C)OC(C)=O)C(C)(O)CC3=O)c1O)C2=O (stereo unspecified)
- T/C (dose: 1.85 mg/kg/injection, schedule: Q07DX002 (ip), vehicle: saline with Tween-80): 155 % of control
- T/C (dose: 3.75 mg/kg/injection, schedule: Q07DX002 (ip), vehicle: saline with Tween-80): 109 % of control
- T/C (dose: 7.5 mg/kg/injection, schedule: Q07DX002 (ip), vehicle: saline with Tween-80): 107 % of control
- T/C (dose: 30.0 mg/kg/injection, schedule: Q07DX002 (ip), vehicle: saline with Tween-80): 122 % of control
